Our source for the Activity and inhibition values is ChEMBL document CHEMBL1140678, “New triterpene glucosides, oligoporins A-C, from Oligoporus tephroleucus protect DNA from Fenton reaction” (Bioorg Med Chem Lett, 2007).

In assay [1] the test system is Escherichia coli. Put plainly: Inhibition of fenton reaction-induced pBR322 supercoiled DNA damage. The format is functional.
The subject of assay [2] is Escherichia coli. Put plainly: Inhibition of fenton reaction-induced pBR322 supercoiled DNA damage at 1 mM. The format is functional.

Turning to `C/C(=C/CC[C@@H](C)[C@H]1CC[C@@]2(C)C3=C(C[C@@H](O[C@@H]4O[C@H](CO)[C@@H](O)[C@H](O)[C@H]4O)[C@]12C)[C@@]1(C)CC[C@@H](O)C(C)(C)[C@@H]1CC3=O)C(=O)O`, in the assay with Escherichia coli [1], the Activity entry is “Dose-dependent effect”. In the assay on Escherichia coli [2], this molecule showed an inhibition of 90%.
With `C/C(=C/CC[C@@H](C)[C@H]1CC[C@@]2(C)C3=CC[C@H]4C(C)(C)C(=O)CC[C@]4(C)C3=C[C@@H](O[C@@H]3O[C@H](CO)[C@@H](O)[C@H](O)[C@H]3O)[C@]12C)C(=O)O`, the Activity result with Escherichia coli [1] was “Dose-dependent effect”.
For the molecule `C/C(=C/CC[C@@H](C)[C@H]1CC[C@@]2(C)C3=CC[C@H]4C(C)(C)[C@H](O)CC[C@]4(C)C3=C[C@@H](O[C@@H]3O[C@H](CO)[C@@H](O)[C@H](O)[C@H]3O)[C@]12C)C(=O)O`, the Activity entry in the assay with Escherichia coli [1] was “Dose-dependent effect”.

In general, inhibition refers to the drop in the measured response relative to a control, in per cent.
